PubChem BioAssay AID743302 (Broad Institute, 2014)
“And” between values parts separate entries of the source, which are not always exact repeats. Equal entries are not always repeated. The source made the active and inactive calls.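 How the source made its calls: active means fitted curve rises past activity 40 at a concentration no higher than the top valid tested dose; inconclusive means flat curve at 30 to 70 percent, or poor fit; inactive means the rest, including activity in the opposite direction.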

System: not listed separately
Experiment: fungal lysis via adenylate kinase leakage – AK release luminescence, dry powder, set 3, dose response (AID 743302)
Conditions: C. neoformans lysis, adenylate kinase release luminescence, 4 h; at 15 µM (top of the series)
With Fc1ccc(OCCn2c(=S)[nH]c3ccccc32)cc1 the cell lysis activity was -54.7% (inactive). In the case of COc1ccccc1OCCn1c(=S)[nH]c2ccccc21, the cell lysis activity is reported as -4.68% (inactive). With CSc1nc2ccccc2n1CCOc1cc(C)ccc1C(C)C the cell lysis activity was 3.47% (inactive). For CC(C)(C)c1ccc(OCCn2c(=S)[nH]c3ccccc32)cc1, the cell lysis activity was 4.17% (inactive). With S=c1[nH]c2ccccc2n1CCOc1ccccc1 the cell lysis activity was 33.9% (inactive). For Cc1ccc(C(C)C)c(OCCn2c(=S)[nH]c3c(F)cccc32)c1, the cell lysis activity was -28.6% (inactive).

System: C. neoformans lysis, adenylate kinase release luminescence, 4 h
Experiment: as above
Conditions: not given
For Cc1ccc(C(C)C)c(OCCn2c(=S)[nH]c3c(Cl)cccc32)c1, the AC40 was > 15000 nM (inactive). For Cc1cccc(OCCn2c(=S)[nH]c3ccccc32)c1C, the AC40 was > 15000 nM (inactive). With Cc1ccc(OCCn2c(SCCO)nc3ccccc32)c(C(C)C)c1 the AC40 was > 15000 nM (inactive). With Cc1ccc(OCCn2c(=S)[nH]c3ccccc32)cc1 the AC40 was 1140 nM. For Cc1ccc(C(C)C)c(OCCn2c(=S)[nH]c3ccccc32)c1, the AC40 was 3570 nM and 2720 nM. For Cc1cccc(OCCn2c(=S)[nH]c3cc(F)ccc32)c1, the AC40 was 581 nM and 1820 nM. With Cc1ccc(OCCn2cnc3ccccc32)c(C(C)C)c1 the AC40 was 3820 nM. Work on CC(C)(C)c1ccc(OCCn2cnc3ccccc32)cc1 yielded an AC40 of 1950 nM. With Fc1cccc2c1[nH]c(=S)n2CCOc1ccccc1 the AC40 was 3180 nM and 2700 nM and 1570 nM. For Fc1ccc2c(c1)[nH]c(=S)n2CCOc1ccccc1, the AC40 was 3060 nM and 1950 nM. Cc1ccc(C)c(OCCn2c(=S)[nH]c3ccccc32)c1 gave an AC40 of 1820 nM. With Cc1ccc(OCCn2c(=S)[nH]c3ccccc32)c(C(C)C)c1 the AC40 was 9540 nM and 1410 nM. CC(C)c1ccccc1NCCn1c(=S)[nH]c2ccccc21 showed an AC40 of 5860 nM. In the case of O=c1[nH]c2ccccc2n1CCOc1ccccc1, the AC40 is reported as > 15000 nM (inactive). Work on COc1ccc(OCCn2c(=S)[nH]c3ccccc32)cc1 yielded an AC40 of 13700 nM. CC(C)c1ccccc1OCCn1c(=S)[nH]c2ccccc21 gave an AC40 of 1110 nM. With Cc1ccc(C(C)C)c(OCCn2c(=S)[nH]c3ccc(Cl)cc32)c1 the AC40 was > 15000 nM (inactive). With CC(C)c1ccc(OCCn2c(=S)[nH]c3ccccc32)cc1 the AC40 was 172 nM. Work on Fc1cccc(OCCn2c(=S)[nH]c3ccccc32)c1 yielded an AC40 of 3270 nM. Compound S=c1[nH]c2ccccc2n1CCOc1ccccc1Cl has an AC40 of 902 nM. For Cc1ccc(C(C)C)c(OCCn2c(=S)[nH]c3cccc(C)c32)c1, the AC40 was 8260 nM. With Cc1ccc(C(C)C)c(OCCn2c(CO)nc3ccccc32)c1 the AC40 was 14000 nM. Work on Cc1ccc(C(C)C)c(OCCn2c(=S)[nH]c3ccc(F)cc32)c1 yielded an AC40 of 1060 nM. For Cc1cccc(OCCn2c(=S)[nH]c3c(F)cccc32)c1, the AC40 was 726 nM and 1300 nM. In the case of Fc1ccccc1OCCn1c(=S)[nH]c2ccccc21, the AC40 is reported as 8740 nM. With Cc1ccc(OCCn2cnc3ccccc32)cc1 the AC40 was > 15000 nM (inactive). For Cc1ccc(C(C)C)c(OCCn2c(=S)[nH]c3cc(F)ccc32)c1, the AC40 was 5510 nM. In the case of c1ccc(OCCn2cnc3ccccc32)cc1, the AC40 is reported as > 15000 nM (inactive). CC(C)(C)c1ccccc1OCCn1c(=S)[nH]c2ccccc21 gave an AC40 of 3230 nM. With Cc1ccc(OCCn2c(=S)[nH]c3ccccc32)c(C)c1 the AC40 was > 15000 nM (inactive). In the case of COc1cccc(OCCn2c(=S)[nH]c3ccccc32)c1, the AC40 is reported as > 15000 nM (inactive). With Cc1ccc(C(C)C)c(OCCn2c(=S)[nH]c3cccc(F)c32)c1 the AC40 was > 15000 nM (inactive). Cc1cccc2[nH]c(=S)n(CCOc3ccccc3)c12 gave an AC40 of 211 nM. With Cc1ccc2c(c1)[nH]c(=S)n2CCOc1ccccc1 the AC40 was 4240 nM and 940 nM. In the case of Cc1ccc(OCCn2c(C)nc3ccccc32)cc1, the AC40 is reported as > 15000 nM (inactive). For S=c1[nH]c2cccc(Cl)c2n1CCOc1ccccc1, the AC40 was 3600 nM and 619 nM. Work on S=c1[nH]c2ccccc2n1CCOc1ccc(Cl)cc1 yielded an AC40 of 1190 nM. Cc1ccc(C(C)C)c(OCCn2c(=S)[nH]c3c(C)cccc32)c1 showed an AC40 of 1820 nM. With Cc1cccc(OCCn2c(=S)[nH]c3cc(C(F)(F)F)ccc32)c1 the AC40 was > 15000 nM (inactive). With Cc1cccc(OCCn2c(=S)[nH]c3ccccc32)c1 the AC40 was 910 nM. Cc1ccccc1OCCn1c(=S)[nH]c2ccccc21 showed an AC40 of 1870 nM. For COCc1nc2ccccc2n1CCOc1ccc(C(C)(C)C)cc1, the AC40 was 6790 nM. Cc1cccc(OCCn2c(=S)[nH]c3ccc(C(F)(F)F)cc32)c1 showed an AC40 of 14300 nM. With Fc1ccc2[nH]c(=S)n(CCOc3ccccc3)c2c1 the AC40 was > 15000 nM (inactive). With Cc1ccc(C(C)C)c(OCCn2c(=S)[nH]c3cccc(Cl)c32)c1 the AC40 was > 15000 nM (inactive). Work on S=c1[nH]c2cc(Cl)ccc2n1CCOc1ccccc1 yielded an AC40 of 358 nM. In the case of CCOc1ccc(OCCn2c(=S)[nH]c3ccccc32)cc1, the AC40 is reported as 1380 nM.
